Experimental data: patent US11731943B2, “Therapeutic compounds, compositions and methods of use thereof” (priority 2016, dated 2023)
Where two headings read alike, the source gives them in different places.

Legend:
[1] = target: isolated recombinant JAK2 kinase domain (Homo sapiens (Human), UniProt O60674); experiment: JAK2 enzyme assay (Caliper LabChip, Ki); format: biochemical
Outline: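 Caliper LabChip readout of phosphorylated product as a fraction of total substrate, a fluorescently N-terminally labelled JAK3-derived peptide. Isolated human JAK kinase domains were incubated 30 min at 22 °C before EDTA quench (50 mM final).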

[2] = test system: JAK1-dependent STAT6 phosphorylation downstream of IL-13 stimulation in BEAS-2B human bronchial epithelial cells; experiment: JAK1 pathway assay in BEAS-2B cells (IL-13-pSTAT6, MSD); format: cell-based; conditions: BEAS-2B cells, IL-13 stimulation, read-out: IL-13 p-STAT6 BEAS-2B IC50
Method: JAK1 Pathway Assay in Cell Lines was carried out as follows:
Inhibitor potency (EC50) was determined in cell-based assays designed to measure JAK1 dependent STAT phosphorylation.
In one assay approach, TF-1 human erythroleukemia cells obtained from the American Type Culture Collection (ATCC; Manassas, Va.) were used to measure JAK1-dependent STAT6 phosphorylation downstream of IL-13 stimulation. Prior to use in the assays, TF-1 cells were starved of GM-CSF overnight in OptiMEM medium (Life Technologies, Grand Island, N.Y.) supplemented with 0.5% charcoal/dextran stripped fetal bovine serum (FBS), 0.1 mM non-essential amino acids (NEAA), and 1 mM sodium pyruvate. The assays were run in 384-well plates in serum-free OptiMEM medium using 300,000 cells per well. In a second assay approach, BEAS-2B human bronchial epithelial cells obtained from ATCC were plated at 100,000 cells per well of a 96-well plate one day prior to the experiment. The BEAS-2B assay was run in complete growth medium (bronchial epithelial basal medium plus bulletkit; Lonza; Basel, Switzerland).
Test compounds were serially diluted 1:2 in DMSO and then diluted 1:50 in medium just before use. Diluted compounds were added to the cells, for a final DMSO concentration of 0.2%, and incubated for 30 min (for the TF-1 assay) or 1 hr (for the BEAS-2B assay) at 37° C. Then, cells were stimulated with human recombinant cytokine at their respective EC90 concentrations, as previously determined for each individual lot. Cells were stimulated with IL-13 (R&D Systems, Minneapolis, Minn.) for 15 min at 37° C. The TF-1 cell reactions were stopped by the direct addition of 10× lysis buffer (Cell Signaling Technologies, Danvers, Mass.), whereas the BEAS-2B cell incubations were halted by the removal of medium and addition of 1× lysis buffer. The resultant samples were frozen in the plates at −80° C. Compound mediated inhibition of STATE phosphorylation was measured in the cell lysates using MesoScale Discovery (MSD) technology (Gaithersburg, Md.).

[3] = target: isolated recombinant JAK1 kinase domain (Homo sapiens (Human), UniProt P23458); experiment: JAK1 enzyme assay (Caliper LabChip, Ki); format: biochemical; conditions: read-out: JAK1 Ki
Chain of isolated recombinant JAK1 kinase domain (P23458 875-1153): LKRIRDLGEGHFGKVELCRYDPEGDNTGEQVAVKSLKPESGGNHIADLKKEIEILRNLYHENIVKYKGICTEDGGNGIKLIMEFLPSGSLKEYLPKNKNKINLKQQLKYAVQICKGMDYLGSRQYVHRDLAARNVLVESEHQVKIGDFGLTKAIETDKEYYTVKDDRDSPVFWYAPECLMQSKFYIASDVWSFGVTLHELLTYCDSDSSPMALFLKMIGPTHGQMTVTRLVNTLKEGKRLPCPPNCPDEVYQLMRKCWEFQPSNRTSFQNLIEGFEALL
Outline: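 Ki derived via Morrison tight-binding model, ATP-competitive correction applied. Read-out: product/total ratio of a 5-carboxyfluorescein-tagged JAK3 peptide separated on Caliper LabChip after phosphorylation by isolated human JAK1 kinase domain (22 °C, 30 min; EDTA quench, 50 mM final).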

Chain of isolated recombinant JAK2 kinase domain (O60674 849-1124): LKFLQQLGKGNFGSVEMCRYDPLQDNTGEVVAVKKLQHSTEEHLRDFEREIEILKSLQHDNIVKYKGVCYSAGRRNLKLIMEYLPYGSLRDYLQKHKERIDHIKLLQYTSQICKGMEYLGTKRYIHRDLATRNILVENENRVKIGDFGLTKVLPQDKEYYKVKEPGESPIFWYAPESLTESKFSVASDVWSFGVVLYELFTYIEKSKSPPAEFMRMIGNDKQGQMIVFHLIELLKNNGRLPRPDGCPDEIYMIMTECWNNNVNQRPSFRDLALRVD

Compound	Ki [1]	IC50 ([2]; Homo sapiens, BEAS-2B)	Ki [3]	IC50 [2]
N#CCC1(n2cc(C(N)=O)c(NC(=O)C3CC3)n2)CCN(Cc2ccccc2Cl)CC1 [Example 58]	42.6 nM	287 nM	4.4 nM	
N#CCC1(n2cc(C(N)=O)c(NC(=O)C3CC3)n2)CCN(Cc2ccc(-c3ccoc3)cc2)CC1F (stereo not drawn) [Example 214, 1-[4-(cyanomethyl)-3-fluoro-1-[[4-(3-furyl)phenyl]methyl]-4-piperidyl]-3-(cyclopropanecarbonylamino) pyrazole-4-carboxamide]	0.62 nM	42 nM	0.31 nM	
CCc1ccc(-c2ccc(CN3CCC(CC#N)(n4cc(C(N)=O)c(NC(=O)OC)n4)C(F)C3)cc2)o1 (stereo not drawn) [Example 232, methyl N-[4-carbamoyl-1-[4-(cyanomethyl)-1-[[4-(5-ethyl-2-furyl)phenyl]methyl]-3-fluoro-4-piperidyl]pyrazol-3-yl]carbamate]	0.89 nM	20 nM	0.32 nM	
CCc1ccc(-c2ccc(CN3CCC(CC#N)(n4cc(C(N)=O)c(NC(=O)C5CC5C#N)n4)C(F)C3)cc2O)cc1 (stereo not drawn) [Example 222, 3-[(2-cyanocyclopropanecarbonyl)amino]-1-[4-(cyanomethyl)-1-[[4-(4-ethylphenyl)-3-hydroxy-phenyl]methyl]-3-fluoro-4-piperidyl]pyrazole-4-carboxamide]	0.43 nM		0.18 nM	52 nM
N#CCC1(n2cc(C(N)=O)c(NC(=O)C3CC3)n2)CCN(Cc2ccc(-c3ccco3)cc2)CC1F (stereo not drawn) [Example 215, 1-[4-(cyanomethyl)-3-fluoro-1-[[4-(2-furyl)phenyl]methyl]-4-piperidyl]-3-(cyclopropanecarbonylamino) pyrazole-4-carboxamide]	0.25 nM	12 nM	0.24 nM	
N#CCC1(n2cc(C(N)=O)c(NC(=O)C3CC3)n2)CCN(Cc2ccc(-c3ccccc3)c(Cl)c2)CC1 [Example 163, 1-[1-[(3-chloro-4-phenyl-phenyl)methyl]-4-(cyanomethyl)-4-piperidyl]-3-(cyclopropanecarbonylamino) pyrazole-4-carboxamide]	18.5 nM	103 nM	2.1 nM	
COC(=O)Nc1nn(C2(CC#N)CCN(Cc3ccc(-c4ccccc4)nc3F)CC2F)cc1C(N)=O (stereo not drawn) [Example 203, methyl N-[4-carbamoyl-1-[4-(cyanomethyl)-3-fluoro-1-[(2-fluoro-6-phenyl-3-pyridyl)methyl]-4-piperidyl]pyrazol-3-yl]carbamate]	0.22 nM	15 nM	0.25 nM	
N#CCC1(n2cc(C(N)=O)c(NC(=O)C3CC3)n2)CCN(Cc2ccc(-c3ccccc3)c(F)c2)CC1 [Example 140, 1-[4-(cyanomethyl)-1-[(3-fluoro-4-phenyl-phenyl)methyl]-4-piperidyl]-3-(cyclopropanecarbonylamino) pyrazole-4-carboxamide]	4.4 nM	49 nM	0.6 nM	
CCc1ccc(-c2ccc(CN3CCC(CC#N)(n4cc(C(N)=O)c(NC(=O)C5CC5)n4)C(F)C3)cc2O)cc1 (stereo not drawn) [Example 212, 1-[4-(cyanomethyl)-1-[[4-(4-ethylphenyl)-3-hydroxy-phenyl]methyl]-3-fluoro-4-piperidyl]-3-(cyclopropanecarbonylamino) pyrazole-4-carboxamide]	0.3 nM	27 nM	0.22 nM	
N#CCC1(n2cc(C(N)=O)c(NC(=O)C3CC3)n2)CCC(Nc2ccc(C3=CCCC3)cc2)CC1 (stereo not drawn) [Example 275, 1-[1-(cyanomethyl)-4-[4-(cyclopenten-1-yl)anilino]cyclohexyl]-3-(cyclopropanecarbonylamino) pyrazole-4-carboxamide]	8.1 nM	52 nM	1.1 nM	
N#CCC1(n2cc(C(N)=O)c(NC(=O)C3CC3)n2)CCC(Nc2ccc(-c3ccccc3)cc2)CC1 (stereo not drawn) [Example 245, 1-[1-(cyanomethyl)-4-(4-phenylanilino)cyclohexyl]-3-(cyclopropanecarbonylamino) pyrazole-4-carboxamide]	0.92 nM	14 nM	0.23 nM	
